Experimental data as given in ChEMBL document CHEMBL3352707, “Antimycobacterial activity of natural products and synthetic agents: pyrrolodiquinolines and vermelhotin as anti-tubercular leads against clinical multidrug resistant isolates of Mycobacterium tuberculosis” (Eur J Med Chem, 2015).
≈ marks a conversion by molar mass, not a printed value.

Assays:
Assay type in all cases: functional
[1] = test system: Mycobacterium tuberculosis; assay: Antimycobacterial activity against isoniazid, rifampin, ethambutol, ofloxacin-resistant Mycobacterium tuberculosis after 7 days by microplate Alamar blue assay; conditions: 168 h
[2] = test system: Mycobacterium tuberculosis; assay: Antimycobacterial activity against isoniazid, rifampin, streptomycin, ofloxacin-resistant Mycobacterium tuberculosis after 7 days by microplate Alamar blue assay; conditions: 168 h
[3] = test system: Mycobacterium tuberculosis; assay: Antimycobacterial activity against isoniazid, rifampin, ethambutol-resistant Mycobacterium tuberculosis after 7 days by microplate Alamar blue assay; conditions: 168 h
[4] = test system: Mycobacterium tuberculosis; assay: Antimycobacterial activity against isoniazid, rifampin-resistant Mycobacterium tuberculosis after 7 days by microplate Alamar blue assay; conditions: 168 h
[5] = test system: Mycobacterium tuberculosis; assay: Antimycobacterial activity against isoniazid, rifampin, ethambutol, streptomycin-resistant Mycobacterium tuberculosis after 7 days by microplate Alamar blue assay; conditions: 168 h
[6] = test system: Mycobacterium tuberculosis; assay: Antimycobacterial activity against isoniazid, rifampin, ethambutol, streptomycin, ofloxacin-resistant Mycobacterium tuberculosis after 7 days by microplate Alamar blue assay; conditions: 168 h
[7] = test system: Mycobacterium tuberculosis; assay: Antimycobacterial activity against isoniazid, rifampin, streptomycin-resistant Mycobacterium tuberculosis after 7 days by microplate Alamar blue assay; conditions: 168 h
[8] = test system: Mycobacterium tuberculosis; assay: Antimycobacterial activity against pyrazinamide-resistant Mycobacterium tuberculosis H37Rv ATCC 35828 after 7 days by microplate Alamar blue assay; conditions: H37Rv ATCC 35828, 168 h
[9] = test system: Mycobacterium tuberculosis; assay: Antimycobacterial activity against Ethionamide-resistant Mycobacterium tuberculosis H37Rv ATCC 35830 after 7 days by microplate Alamar blue assay; conditions: H37Rv ATCC 35830, 168 h

SMILES	MIC [1] [µg/mL]	MIC [2] [µg/mL]	MIC [3] [µg/mL]	MIC [4] [µg/mL]	MIC [5] [µg/mL]	MIC [6] [µg/mL]	MIC [7] [µg/mL]	MIC [8] [µg/mL]	MIC [9] [µg/mL]
CO[C@H]1/C=C/O[C@@]2(C)Oc3c(C)c(O)c4c(O)c(c(/C=N/N5CCN(C)CC5)c(O)c4c3C2=O)NC(=O)/C(C)=C\C=C\[C@H](C)[C@H](O)[C@@H](C)[C@@H](O)[C@@H](C)[C@H](OC(C)=O)[C@@H]1C [RIFAMPIN]	≥ 2	≥ 2	≥ 2	≥ 2	≥ 2	≥ 2	≥ 2	–	–
CC1COc2c(N3CCN(C)CC3)c(F)cc3c(=O)c(C(=O)O)cn1c23 (stereo unspecified) [OFLOXACIN]	≥ 4	≥ 4	≤ 2	≤ 2	≤ 2	≥ 4	≤ 2	–	–
CC[C@@H](CO)NCCN[C@@H](CC)CO [ETHAMBUTOL]	≥ 8	≤ 2	≥ 8	≤ 2	≥ 8	≥ 8	≤ 2	–	–
CN1Cc2c(cn3c2ccc2ccccc23)-c2ccccc21	–	–	–	–	–	–	–	3.1 (≈ 10.9 µM)	6.2 (≈ 21.8 µM)
C/C=C/C1=CC=C/C(=C2\C(=O)CNC2=O)O1 [VERMELHOTIN]	–	–	–	–	–	–	–	6.2 (≈ 28.5 µM)	3.1 (≈ 14.3 µM)
NNC(=O)c1ccncc1 [ISONIAZID]	≥ 2	≥ 2	≥ 2	≥ 2	≥ 2	≥ 2	≥ 2	–	–
CN[C@@H]1[C@H](O[C@H]2[C@H](O[C@H]3[C@H](O)[C@@H](O)[C@H](N=C(N)N)[C@@H](O)[C@@H]3N=C(N)N)O[C@@H](C)[C@]2(O)C=O)O[C@@H](CO)[C@H](O)[C@H]1O [STREPTOMYCIN]	≤ 2	≥ 8	≤ 2	≤ 2	≥ 8	≥ 8	≥ 8	–	–
C[n+]1cc2c(cn3c4ccccc4ccc23)c2ccccc21.[I-]	–	–	–	–	–	–	–	6.2	6.2
